From paper PMC7725003, “Systematically Studying the Optimal Amino Acid Distribution Patterns of the Amphiphilic Structure by Using the Ultrashort Amphiphiles” (Frontiers in Microbiology, 2020)
Where no end group is shown, it is not given here.

Experiments:
E. coli UB1005 = assay type: cell-based, Escherichia coli; conditions: UB1005, 24 h
Protocol: (§1) The antimicrobial activities of the peptides were measured using a method adapted from the National Committee for Clinical Laboratory Standards (NCCLS) with some modifications ([Chou et al., 2016]). The specific procedure for these assays has been previously described. In brief, the bacterial cells were grown to a mid-logarithmic phase and diluted in MHB to an ultimate concentration of 0.5–1 × 10^6 CFU mL^–1. Subsequently, the peptides were consecutively diluted in a 0.2% BSA solution and then added to a bacterial solution in a 96-well plate at identical volumes. After incubation for 24 h at 37°C, the MICs were determined to be the lowest peptide concentration that inhibited 95% of the bacterial growth by monitoring the absorbance at 492 nm using a microplate reader. Subsequently, 50 μL of each incubation mixture was further transferred to agar plates and incubated overnight. The minimum bactericidal concentrations (MBCs) were determined as the lowest peptide concentration that killed greater than 99.9% of the bacterial cells. Every assay was reproduced more than 3 times.

E. coli O78 = assay type: cell-based, Escherichia coli; conditions: O78, 24 h
Protocol: as §1

E. coli 25922 = assay type: cell-based, Escherichia coli; conditions: 25922, 24 h
Protocol: as §1

[1] = tested on: all of the tested bacterial strains; assay: Geometric mean of MICs, all tested bacterial strains; assay type: cell-based; conditions: for GM, All: geometric mean of MICs across all tested strains; for TI, All: therapeutic index TI = MHC/GM MIC
Excerpt: The antimicrobial activity of AMPs is the most decisive index for evaluating the clinical application of antimicrobial drugs. Many antimicrobial agents inhibit bacterial growth rather than kill the bacteria quickly, and long-term infections are pathogens that are not completely killed, which results in bacterial severe drug resistance. […] The geometric mean (GM) values of the MICs/MBCs of the two series across all of the tested bacterial strains are represented in Table 3, which depicts the average bacteriostatic/bactericidal level of a peptide.
as §1

S. aureus 29213 [2] = assay: Salt sensitivity assay (MIC); assay type: cell-based, Staphylococcus aureus; conditions: for MIC, FeCl3: 4 μM FeCl3; for MIC, NH4Cl: 6 μM NH4Cl; for MIC, ZnCl2: 8 μM ZnCl2; for MIC, MgCl2: 1 mM MgCl2; for MIC, CaCl2: 2 mM CaCl2; for MIC, KCl: 4.5 mM KCl; for MIC, NaCl: 150 mM NaCl; for MIC, Control: no added salt, three independent assays
Protocol: as §1
(§2) The salt sensitivities of the peptides were determined. E. coli ATCC 25922 and S. aureus ATCC 29213 were incubated in the presence of various ultimate concentrations of physiological salts (150 mM NaCl, 4.5 mM KCl, 6 μM NH4Cl, 8 μM ZnCl2, 1 mM MgCl2, 2mM CaCl2, and 4 μM FeCl3) according to our previous protocol ([Yang et al., 2019]). These tests were performed under the MICs, and three independent assays were performed.

MRSA 43300 = assay type: cell-based, methicillin-resistant S. aureus; conditions: 43300, 24 h
Protocol: as §1

P. aeruginosa 27853 = assay type: cell-based, Pseudomonas aeruginosa; conditions: 27853, 24 h
Protocol: as §1

[3] = tested on: Listeria monocytogenes CGMCC 1.1075; assay type: cell-based; conditions: CGMCC 1.1075, 24 h
Protocol: as §1

S. epidermidis 12228 = assay type: cell-based, Staphylococcus epidermidis; conditions: 12228, 24 h
Protocol: as §1

Gram-positive bacteria = conditions: for GM, Gram-positive bacteria: geometric mean of MICs (Table 3); for TI, Gram-positive bacteria: therapeutic index TI = MHC/GM MIC
Protocol: (§3) The antimicrobial activity of AMPs is the most decisive index for evaluating the clinical application of antimicrobial drugs.
as §1, with “The minimum bactericidal concentrations (MBCs) were determined as the lowest peptide concentration that killed greater than 99.9% of the bacterial cells.” left out

Gram-negative bacteria = conditions: for GM, Gram-negative bacteria: geometric mean of MICs (Table 3); for TI, Gram-negative bacteria: therapeutic index TI = MHC/GM MIC
Protocol: as §3
as §1, with “The minimum bactericidal concentrations (MBCs) were determined as the lowest peptide concentration that killed greater than 99.9% of the bacterial cells.” left out

S. typhimurium 7731 = assay type: cell-based, Salmonella typhimurium; conditions: 7731, 24 h
Protocol: as §1

S. typhimurium 14028 = assay type: cell-based, Salmonella typhimurium; conditions: 14028, 24 h
Protocol: as §1

S. aureus 25923 = assay type: cell-based, Staphylococcus aureus; conditions: 25923, 24 h
Protocol: as §1

S. aureus 29213 [4] = assay type: cell-based, Staphylococcus aureus; conditions: 29213, 24 h
Protocol: as §1

S. pullorum 7913 = assay type: cell-based, Salmonella pullorum; conditions: 7913, 24 h
Protocol: as §1

E. faecalis 29212 = assay type: cell-based, Enterococcus faecalis; conditions: 29212, 24 h
Protocol: as §1

E. coli ATCC 25922 = assay: Salt sensitivity assay (MIC); assay type: cell-based, Escherichia coli; conditions: for MIC, FeCl3: 4 μM FeCl3; for MIC, NH4Cl: 6 μM NH4Cl; for MIC, ZnCl2: 8 μM ZnCl2; for MIC, MgCl2: 1 mM MgCl2; for MIC, CaCl2: 2 mM CaCl2; for MIC, KCl: 4.5 mM KCl; for MIC, NaCl: 150 mM NaCl; for MIC, Control: no added salt, three independent assays
Protocol: as §1, §2

B. subtilis 63501 = assay type: cell-based, Bacillus subtilis; conditions: 63501, 24 h
Protocol: as §1

Substance: WRRWRWRWW-NH2 [W3]
- MBC (E. coli UB1005): 8 µM
- MIC (E. coli UB1005): 4 µM
- MBC (E. coli O78): 8 µM
- MIC (E. coli O78): 4 µM
- MBC (E. coli 25922): 8 µM
- MIC (E. coli 25922): 4 µM
- GM, All [1]: 3.67 µM
- TI, All [1]: 69.75
- MIC, FeCl3 (S. aureus 29213 [2]): 8 µM
- MIC, NH4Cl (S. aureus 29213 [2]): 8 µM
- MIC, ZnCl2 (S. aureus 29213 [2]): 4 µM
- MIC, MgCl2 (S. aureus 29213 [2]): 4 µM
- MIC, CaCl2 (S. aureus 29213 [2]): 4 µM
- MIC, KCl (S. aureus 29213 [2]): 2 µM
- MIC, NaCl (S. aureus 29213 [2]): 8 µM
- MIC, Control (S. aureus 29213 [2]): 4 µM
- MBC (MRSA 43300): 4 µM
- MIC (MRSA 43300): 2 µM
- MBC (P. aeruginosa 27853): 8 µM
- MIC (P. aeruginosa 27853): 4 µM
- MBC [3]: 8 µM
- MIC [3]: 4 µM
- MBC (S. epidermidis 12228): 4 µM
- MIC (S. epidermidis 12228): 2 µM
- GM, Gram-positive bacteria (Gram-positive bacteria): 2.69 µM
- TI, Gram-positive bacteria (Gram-positive bacteria): 95.17
- GM, Gram-negative bacteria (Gram-negative bacteria): 4.67 µM
- TI, Gram-negative bacteria (Gram-negative bacteria): 54.82
- MBC (S. typhimurium 7731): 16 µM
- MIC (S. typhimurium 7731): 8 µM
- MBC (S. typhimurium 14028): 8 µM
- MIC (S. typhimurium 14028): 4 µM
- MBC (S. aureus 25923): 8 µM
- MIC (S. aureus 25923): 4 µM
- MBC (S. aureus 29213 [4]): 8 µM
- MIC (S. aureus 29213 [4]): 4 µM
- MBC (S. pullorum 7913): 4 µM
- MIC (S. pullorum 7913): 2 µM
- MBC (E. faecalis 29212): 8 µM
- MIC (E. faecalis 29212): 4 µM
- MIC, FeCl3 (E. coli ATCC 25922): 8 µM
- MIC, NH4Cl (E. coli ATCC 25922): 4 µM
- MIC, ZnCl2 (E. coli ATCC 25922): 8 µM
- MIC, MgCl2 (E. coli ATCC 25922): 8 µM
- MIC, CaCl2 (E. coli ATCC 25922): 8 µM
- MIC, KCl (E. coli ATCC 25922): 8 µM
- MIC, NaCl (E. coli ATCC 25922): 16 µM
- MIC, Control (E. coli ATCC 25922): 4 µM
- MBC (B. subtilis 63501): 2 µM
- MIC (B. subtilis 63501): 1 µM

Substance: WWRWRRRWW-NH2 [W2]
- MBC (E. coli UB1005): 8 µM
- MIC (E. coli UB1005): 4 µM
- MBC (E. coli O78): 16 µM
- MIC (E. coli O78): 8 µM
- MBC (E. coli 25922): 8 µM
- MIC (E. coli 25922): 4 µM
- GM, All [1]: 4.18 µM
- TI, All [1]: 61.24
- MIC, FeCl3 (S. aureus 29213 [2]): 4 µM
- MIC, NH4Cl (S. aureus 29213 [2]): 2 µM
- MIC, ZnCl2 (S. aureus 29213 [2]): 4 µM
- MIC, MgCl2 (S. aureus 29213 [2]): 4 µM
- MIC, CaCl2 (S. aureus 29213 [2]): 4 µM
- MIC, KCl (S. aureus 29213 [2]): 4 µM
- MIC, NaCl (S. aureus 29213 [2]): 4 µM
- MIC, Control (S. aureus 29213 [2]): 2 µM
- MBC (MRSA 43300): 4 µM
- MIC (MRSA 43300): 2 µM
- MBC (P. aeruginosa 27853): 32 µM
- MIC (P. aeruginosa 27853): 16 µM
- MBC [3]: 32 µM
- MIC [3]: 16 µM
- MBC (S. epidermidis 12228): 4 µM
- MIC (S. epidermidis 12228): 2 µM
- GM, Gram-positive bacteria (Gram-positive bacteria): 2.97 µM
- TI, Gram-positive bacteria (Gram-positive bacteria): 86.20
- GM, Gram-negative bacteria (Gram-negative bacteria): 5.44 µM
- TI, Gram-negative bacteria (Gram-negative bacteria): 47.06
- MBC (S. typhimurium 7731): 8 µM
- MIC (S. typhimurium 7731): 4 µM
- MBC (S. typhimurium 14028): 16 µM
- MIC (S. typhimurium 14028): 8 µM
- MBC (S. aureus 25923): 4 µM
- MIC (S. aureus 25923): 2 µM
- MBC (S. aureus 29213 [4]): 4 µM
- MIC (S. aureus 29213 [4]): 2 µM
- MBC (S. pullorum 7913): 8 µM
- MIC (S. pullorum 7913): 4 µM
- MBC (E. faecalis 29212): 16 µM
- MIC (E. faecalis 29212): 8 µM
- MIC, FeCl3 (E. coli ATCC 25922): 8 µM
- MIC, NH4Cl (E. coli ATCC 25922): 4 µM
- MIC, ZnCl2 (E. coli ATCC 25922): 4 µM
- MIC, MgCl2 (E. coli ATCC 25922): 4 µM
- MIC, CaCl2 (E. coli ATCC 25922): 8 µM
- MIC, KCl (E. coli ATCC 25922): 4 µM
- MIC, NaCl (E. coli ATCC 25922): 16 µM
- MIC, Control (E. coli ATCC 25922): 4 µM
- MBC (B. subtilis 63501): 2 µM
- MIC (B. subtilis 63501): 1 µM

Substance: WWWRRRRWW-NH2 [W4]
- MBC (E. coli UB1005): 16 µM
- MIC (E. coli UB1005): 8 µM
- MBC (E. coli O78): 16 µM
- MIC (E. coli O78): 8 µM
- MBC (E. coli 25922): 8 µM
- MIC (E. coli 25922): 4 µM
- GM, All [1]: 4.18 µM
- TI, All [1]: 30.62
- MIC, FeCl3 (S. aureus 29213 [2]): 2 µM
- MIC, NH4Cl (S. aureus 29213 [2]): 1 µM
- MIC, ZnCl2 (S. aureus 29213 [2]): 1 µM
- MIC, MgCl2 (S. aureus 29213 [2]): 1 µM
- MIC, CaCl2 (S. aureus 29213 [2]): 2 µM
- MIC, KCl (S. aureus 29213 [2]): 1 µM
- MIC, NaCl (S. aureus 29213 [2]): 1 µM
- MIC, Control (S. aureus 29213 [2]): 2 µM
- MBC (MRSA 43300): 4 µM
- MIC (MRSA 43300): 2 µM
- MBC (P. aeruginosa 27853): 16 µM
- MIC (P. aeruginosa 27853): 8 µM
- MBC [3]: 32 µM
- MIC [3]: 16 µM
- MBC (S. epidermidis 12228): 4 µM
- MIC (S. epidermidis 12228): 2 µM
- GM, Gram-positive bacteria (Gram-positive bacteria): 2.69 µM
- TI, Gram-positive bacteria (Gram-positive bacteria): 47.58
- GM, Gram-negative bacteria (Gram-negative bacteria): 5.88 µM
- TI, Gram-negative bacteria (Gram-negative bacteria): 21.77
- MBC (S. typhimurium 7731): 16 µM
- MIC (S. typhimurium 7731): 8 µM
- MBC (S. typhimurium 14028): 16 µM
- MIC (S. typhimurium 14028): 8 µM
- MBC (S. aureus 25923): 4 µM
- MIC (S. aureus 25923): 2 µM
- MBC (S. aureus 29213 [4]): 4 µM
- MIC (S. aureus 29213 [4]): 2 µM
- MBC (S. pullorum 7913): 8 µM
- MIC (S. pullorum 7913): 4 µM
- MBC (E. faecalis 29212): 8 µM
- MIC (E. faecalis 29212): 4 µM
- MIC, FeCl3 (E. coli ATCC 25922): 4 µM
- MIC, NH4Cl (E. coli ATCC 25922): 2 µM
- MIC, ZnCl2 (E. coli ATCC 25922): 4 µM
- MIC, MgCl2 (E. coli ATCC 25922): 16 µM
- MIC, CaCl2 (E. coli ATCC 25922): 8 µM
- MIC, KCl (E. coli ATCC 25922): 16 µM
- MIC, NaCl (E. coli ATCC 25922): 16 µM
- MIC, Control (E. coli ATCC 25922): 4 µM
- MBC (B. subtilis 63501): 2 µM
- MIC (B. subtilis 63501): 1 µM
